Measured values reported in US8431583B2, “Use of purine derivatives for the manufacture of a medicament” (Centre National de la Recherche Scientifique, priority 2007, dated 2013).

Key:
B-CLL = B-CLL patients; cited from earlier work
[1] = tested on: B2 lymphocytes originating from patients; experiment: Induction of cell death of B chronic lymphoid leukemia cells (B2 lymphocytes) from patients; assay type: cell-based, human; details: B2 lymphocytes from CLL patients, MTS reduction / LDH release
Experimental: The B2 lymphocytes are lymphocytes involved in […] chronic lymphoid leukemia.
Cell viability is determined by the reduction of 3-(4,5-dimethylthiazol-2-yl)-5-(3-carboxymethoxyphenyl)-2-(4-sulfophenyl)-2H-tetrazolium (MTS).
Cell death is determined by the measurement of the level of the activity of the lactate dehydrogenase (LDH) released during lysis of the cells. The two processes are described in detail in “Ribas J. and Boix J. Cell differentiation, caspase inhibition, and macromolecular synthesis blockage, but not BCL-2 or BCL-XL proteins protect SH-SY5Y cells from apoptosis triggered by two CDK inhibitory drugs.
In table 2, the values shown are the mean inhibitory concentration IC50 values, expressed in μM.

Solubility in water = assay type: physicochemical
CDK9/cyclin T = molecular target: T1, CDK9/cyclin T (Homo sapiens, UniProt P50750); experiment: Kinase assay CDK9/cyclin T; assay type: biochemical; details: 15 μM ATP, 30° C., pRB fragment substrate
T1 construct: host or cells: insect cells
Experimental: (§1) Assaying is carried out with 1 mg histone H1/ml, in the presence of 15 μm [γ-^33P]ATP (3000 Ci/mmol; 10 mCi/ml) in a final volume of 30 μl. After incubating at 30° C. for 30 min, 25 μl aliquots of supernatant were deposited on 2.5×3 cm pieces of Whatman P8 phosphocellulose papers and then, 20 sec. later, the filters were washed 5 times in a solution of 10 ml of phosphoric acid/liter. The filters are subsequently counted in the presence of 1 ml of ACS (Amersham).
(§2) The mean inhibitory concentration IC50 values were calculated from the dose/response curves and are listed in μM in the following table I.

DYRK1A = molecular target: T2, DYRK1A (Homo sapiens, UniProt Q13627); experiment: Kinase assay DYRK1A; assay type: biochemical; details: 15 μM ATP, 30° C.
T2 construct: host or cells: E. coli
Experimental: as §1
DYRK1A (human, recombinant, expressed in E. coli cells) is assayed like CDK1/cyclin B.
as §2

Erk2 = Erk2 (Homo sapiens, UniProt P28482); experiment: Kinase assay Erk2; assay type: biochemical; details: 15 μM ATP, 30° C.
Experimental: as §2

CK1δ/e = experiment: Kinase assay CK1; details: read-out: IC50 CK1; 15 μM ATP, 30° C., buffer A
GSK-3 α/β = experiment: Kinase assay GSK-3α/β; assay type: biochemical, pig; details: 15 μM ATP, 30° C., buffer A, GS-1 substrate
Experimental: as §1, with “After” for “Assaying is carried out with 1 mg histone H1/ml, in the presence of 15 μm [γ-^33P]ATP (3000 Ci/mmol; 10 mCi/ml) in a final volume of 30 μl. After”
as §2

Erk2, sequence (P28482 whole entry, species assumed): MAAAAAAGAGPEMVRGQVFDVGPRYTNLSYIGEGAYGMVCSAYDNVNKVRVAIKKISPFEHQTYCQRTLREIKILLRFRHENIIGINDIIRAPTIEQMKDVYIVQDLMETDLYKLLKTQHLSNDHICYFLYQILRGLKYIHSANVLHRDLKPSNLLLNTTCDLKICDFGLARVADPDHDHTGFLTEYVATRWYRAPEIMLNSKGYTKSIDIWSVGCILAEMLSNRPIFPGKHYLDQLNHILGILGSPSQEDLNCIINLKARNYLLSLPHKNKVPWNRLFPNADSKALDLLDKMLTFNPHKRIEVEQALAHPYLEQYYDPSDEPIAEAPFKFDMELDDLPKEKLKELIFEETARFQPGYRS
T1 sequence (P50750 whole entry, the tested form may be a part): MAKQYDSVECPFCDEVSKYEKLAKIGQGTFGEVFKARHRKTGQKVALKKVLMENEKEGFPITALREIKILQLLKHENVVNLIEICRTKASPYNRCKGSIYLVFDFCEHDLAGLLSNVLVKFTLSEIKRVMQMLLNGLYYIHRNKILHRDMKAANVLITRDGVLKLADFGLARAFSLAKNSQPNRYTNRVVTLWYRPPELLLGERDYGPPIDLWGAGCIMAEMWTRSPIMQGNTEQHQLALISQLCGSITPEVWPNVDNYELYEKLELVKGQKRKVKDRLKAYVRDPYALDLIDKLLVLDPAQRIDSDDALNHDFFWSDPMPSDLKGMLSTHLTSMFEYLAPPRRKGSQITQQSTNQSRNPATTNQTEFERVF
T1 sequence (O60563 whole entry partner, the tested form may be a part): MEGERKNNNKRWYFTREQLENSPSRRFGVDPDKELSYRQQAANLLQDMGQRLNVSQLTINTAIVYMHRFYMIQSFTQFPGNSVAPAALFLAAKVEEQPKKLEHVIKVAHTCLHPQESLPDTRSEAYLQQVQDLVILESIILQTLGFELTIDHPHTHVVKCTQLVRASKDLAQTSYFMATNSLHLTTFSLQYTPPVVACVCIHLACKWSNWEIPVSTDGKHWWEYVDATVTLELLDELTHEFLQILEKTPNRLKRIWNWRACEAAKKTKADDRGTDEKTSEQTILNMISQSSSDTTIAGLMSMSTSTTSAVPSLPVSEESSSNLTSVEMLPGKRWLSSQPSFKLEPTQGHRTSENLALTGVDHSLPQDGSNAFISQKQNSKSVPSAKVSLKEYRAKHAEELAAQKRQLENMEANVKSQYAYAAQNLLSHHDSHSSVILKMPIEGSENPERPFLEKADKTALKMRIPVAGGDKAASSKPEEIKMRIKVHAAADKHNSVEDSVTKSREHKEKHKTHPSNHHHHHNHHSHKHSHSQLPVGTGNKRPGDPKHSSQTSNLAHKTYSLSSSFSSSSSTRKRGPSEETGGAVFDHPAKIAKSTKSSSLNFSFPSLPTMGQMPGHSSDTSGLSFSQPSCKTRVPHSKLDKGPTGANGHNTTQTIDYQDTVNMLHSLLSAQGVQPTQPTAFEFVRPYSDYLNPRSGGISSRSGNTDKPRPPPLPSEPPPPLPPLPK

For “alemtuzumab: therapeutic antibody against an antigen expressed on leukocytes and leukemic B lymphocytes of CLL”, the hematologic response (B-CLL) is listed as 33%.
`CC(C)[C@H](CO)Nc1nc(NCc2ccc(-c3ccccn3)cc2)c2ncn(C(C)C)c2n1` [Compound of formula Ie] showed an IC50 ([1]; Homo sapiens, Lymphocyte) of 0.51 µM.
Compound `CC(C)n1cnc2c(NCc3ccc(-c4ccccn4)cc3)nc(NC(CO)CO)nc21` [Compound of formula Id, 2-(1,3-Dihydroxyprop-2-ylamino)-6-[4-(2-pyridyl)phenylmethylamino]-9-isopropylpurine] has an IC50 ([1]; Homo sapiens, Lymphocyte) of 0.25 µM.
For `CCC(CO)Nc1nc(NCc2ccc(-c3ccccc3)cc2)c2ncn(C(C)C)c2n1` (stereo not drawn) [Compound of formula Ic], the IC50 ([1]; Homo sapiens, Lymphocyte) was 1.25 µM and the solubility (Solubility in water) was 0.5 µg/mL.
With `CC[C@H](CO)Nc1nc(NCc2ccc(-c3ccccn3)cc2)c2ncn(C(C)C)c2n1` [Compound of formula Ia] the IC50 (CDK9/cyclin T) was 0.18 µM, the IC50 (DYRK1A) was 3.6 µM and the IC50 (Erk2) was 3.6 µM. For the same compound, the IC50 ([1]; Homo sapiens, Lymphocyte) was 0.2 µM and the IC50 (CK1δ/e) was 0.4 µM.
For `CC[C@@H](CO)Nc1nc(NCc2ccc(-c3ccccn3)cc2)c2ncn(C(C)C)c2n1` [Compound of formula Ib], the IC50 (CDK9/cyclin T) was 0.11 µM, the IC50 (DYRK1A) was 0.9 µM and the IC50 (Erk2) was 2.1 µM. For the same compound, the IC50 (GSK-3 α/β) was at least 30 µM, the IC50 ([1]; Homo sapiens, Lymphocyte) was 0.09 µM and the solubility (Solubility in water) was 3.3 µg/mL. It also gave an IC50 (CK1δ/e) of 0.61 µM.
Compound `CC(C)[C@H](CO)Nc1nc(NCc2ccc(-c3ccccn3)cc2)c2ncn(C(C)C)c2n1` [Compound of formula If] has an IC50 [1] of 0.38 µM.
